# Target: histone deacetylase (HDAC Enzyme)
# Experiment: Inhibition of Histone Deacetylase Enzymatic Activity (Boc-Lys(Ac)-AMC, Fluor-de-Lys developer)
# Type: biochemical
# Conditions: Table 9; read-out: HDAC Inhibition (IC50 μM) HDAC Enzyme
# Description: The following protocol is used to assay the compounds of the invention.
# The mixture is pre-incubated for 5 minutes at room temperature. The reaction is started by bringing the temperature to 37° C. and adding 16 μl substrate. Total reaction volume is 50 μl.
# In the Tables 8, 9 and 10, A≦[…]<B≦0.1 μM; 0.1 μM<C≦1 μM; and 1 μM<D≦10 μM.
row,IC50,SMILES
1,< 0.05 µM,"O=C(NO)c1cnc(N2C[C@@H]3C[C@H]2CN3c2ccc(Cl)cc2)nc1 [2-((1S,4S)-5-(4-chlorophenyl)-2,5-diazabicyclo[2.2.1]heptan-2-yl)-N-hydroxypyrimidine-5-carboxamide]"
2,0.05 to 0.1 µM,"O=C(NO)c1cnc(N2C[C@@H]3C[C@H]2CN3c2ccc(F)cc2)nc1 [2-((1S,4S)-5-(4-fluorophenyl)-2,5-diazabicyclo[2.2.1]heptan-2-yl)-N-hydroxypyrimidine-5-carboxamide]"
3,< 0.05 µM,"O=C(NO)c1cnc(N2C[C@@H]3C[C@H]2CN3c2cccc3nonc23)nc1 [2-((1S,4S)-5-(benzo[c][1,2,5]oxadiazol-4-yl)-2,5-diazabicyclo[2.2.1]heptan-2-yl)-N-hydroxypyrimidine-5-carboxamide]"
4,< 0.05 µM,"O=C(NO)c1cnc(N2C[C@@H]3C[C@H]2CN3c2ccc3nonc3c2)nc1 [2-((1S,4S)-5-(benzo[c][1,2,5]oxadiazol-5-yl)-2,5-diazabicyclo[2.2.1]heptan-2-yl)-N-hydroxypyrimidine-5-carboxamide]"
5,< 0.05 µM,"O=C(NO)c1cnc(N2C[C@@H]3C[C@H]2CN3c2ccc3nsnc3c2)nc1 [2-((1S,4S)-5-(benzo[c][1,2,5]thiadiazol-5-yl)-2,5-diazabicyclo[2.2.1]heptan-2-yl)-N-hydroxypyrimidine-5-carboxamide]"
6,< 0.05 µM,"O=C(NO)c1cnc(N2C[C@@H]3C[C@H]2CN3c2ccc3c(c2)OCO3)nc1 [2-((1S,4S)-5-(benzo[d][1,3]dioxol-5-yl)-2,5-diazabicyclo[2.2.1]heptan-2-yl)-N-hydroxypyrimidine-5-carboxamide]"
7,< 0.05 µM,"O=C(NO)c1cnc(N2C[C@@H]3C[C@H]2CN3c2noc3ccccc23)nc1 [2-((1S,4S)-5-(benzo[d]isoxazol-3-yl)-2,5-diazabicyclo[2.2.1]heptan-2-yl)-N-hydroxypyrimidine-5-carboxamide]"
8,< 0.05 µM,"O=C(NO)c1cnc(N2C[C@@H]3C[C@H]2CN3C(c2ccccc2)c2ccccc2)nc1 [2-((1S,4S)-5-benzhydryl-2,5-diazabicyclo[2.2.1]heptan-2-yl)-N-hydroxypyrimidine-5-carboxamide]"
9,< 0.05 µM,"O=C(NO)c1cnc(N2C[C@@H]3C[C@H]2CN3C(=O)c2ccccc2)nc1 [2-((1S,4S)-5-benzoyl-2,5-diazabicyclo[2.2.1]heptan-2-yl)-N-hydroxypyrimidine-5-carboxamide]"
10,0.1 to 1 µM,"O=C(NO)c1ccc(N2C[C@@H]3C[C@H]2CN3c2cccc(C(F)(F)F)c2)cc1F [2-fluoro-N-hydroxy-4-((1S,4S)-5-(3-(trifluoromethyl)phenyl)-2,5-diazabicyclo[2.2.1]heptan-2-yl)benzamide]"
11,0.1 to 1 µM,"N#Cc1cccc(N2C[C@@H]3C[C@H]2CN3c2ccc(C(=O)NO)cc2)c1 [4-((1S,4S)-5-(3-cyanophenyl)-2,5-diazabicyclo[2.2.1]heptan-2-yl)-N-hydroxybenzamide]"
12,< 0.05 µM,"O=C(NO)c1cnc(N2C[C@@H]3C[C@H]2CN3C(=O)OCc2ccccc2)nc1 [(1S,4S)-benzyl 5-(5-(hydroxycarbamoyl)pyrimidin-2-yl)-2,5-diazabicyclo[2.2.1]heptane-2-carboxylate]"
13,< 0.05 µM,"O=C(NO)c1cnc(N2C[C@@H]3C[C@H]2CN3C(=O)OC2CCCC2)nc1 [(1S,4S)-cyclopentyl 5-(5-(hydroxycarbamoyl)pyrimidin-2-yl)-2,5-diazabicyclo[2.2.1]heptane-2-carboxylate]"
14,< 0.05 µM,"O=C(NO)c1cnc(N2C[C@@H]3C[C@H]2CN3C(=O)OCC2CC2)nc1 [(1S,4S)-cyclopropylmethyl 5-(5-(hydroxycarbamoyl)pyrimidin-2-yl)-2,5-diazabicyclo[2.2.1]heptane-2-carboxylate]"
15,< 0.05 µM,"CC(C)COC(=O)N1C[C@@H]2C[C@H]1CN2c1ncc(C(=O)NO)cn1 [(1S,4S)-isobutyl 5-(5-(hydroxycarbamoyl)pyrimidin-2-yl)-2,5-diazabicyclo[2.2.1]heptane-2-carboxylate]"
16,< 0.05 µM,"CC(C)OC(=O)N1C[C@@H]2C[C@H]1CN2c1ncc(C(=O)NO)cn1 [(1S,4S)-isopropyl 5-(5-(hydroxycarbamoyl)pyrimidin-2-yl)-2,5-diazabicyclo[2.2.1]heptane-2-carboxylate]"
17,< 0.05 µM,"O=C(NO)c1cnc(N2C[C@@H]3C[C@H]2CN3C(=O)OCc2cccnc2)nc1 [(1S,4S)-pyridin-3-ylmethyl 5-(5-(hydroxycarbamoyl)pyrimidin-2-yl)-2,5-diazabicyclo[2.2.1]heptane-2-carboxylate]"
18,< 0.05 µM,"CC(C)(C)OC(=O)N1C[C@@H]2C[C@H]1CN2c1ncc(C(=O)NO)cn1 [(1S,4S)-tert-butyl 5-(5-(hydroxycarbamoyl)pyrimidin-2-yl)-2,5-diazabicyclo[2.2.1]heptane-2-carboxylate]"
19,< 0.05 µM,"O=C(NO)c1cnc(N2C[C@@H]3C[C@H]2CN3C(=O)OC2CCOCC2)nc1 [(1S,4S)-tetrahydro-2H-pyran-4-yl 5-(5-(hydroxycarbamoyl)pyrimidin-2-yl)-2,5-diazabicyclo[2.2.1]heptane-2-carboxylate]"

row,SMILES,IC50
1,"O=C(NO)c1cnc(N2C[C@@H]3C[C@H]2CN3Cc2ccccc2)nc1 [2-((1S,4S)-5-benzyl-2,5-diazabicyclo[2.2.1]heptan-2-yl)-N-hydroxypyrimidine-5-carboxamide]",0.1 to 1 µM

# Same assay, conditions: Table 10; read-out: HDAC Inhibition (IC50 μM) HDAC Enzyme
row,IC50,SMILES
1,< 0.05 µM,O=C(NO)c1cnc(NC(c2ccccc2)c2ccccc2)nc1 [2-(benzhydrylamino)-N-hydroxypyrimidine-5-carboxamide]
2,0.1 to 1 µM,O=C(NO)c1cnc(OC(c2ccc(F)cc2)c2ccc(F)cc2)nc1 [2-(bis(4-fluorophenyl)methoxy)-N-hydroxypyrimidine-5-carboxamide]
3,1 to 10 µM,O=C(NO)c1cnc(ON=C(c2ccccc2)c2ccccc2)nc1 [2-(diphenylmethyleneaminooxy)-N-hydroxypyrimidine-5-carboxamide]
4,0.1 to 1 µM,O=C(NO)c1cccc(CN2c3ccccc3Sc3ccccc32)c1 [3-((10H-phenothiazin-10-yl)methyl)-N-hydroxybenzamide]
5,1 to 10 µM,O=C(NO)c1cccc(CN2c3ccccc3Oc3ccccc32)c1 [3-((10H-phenoxazin-10-yl)methyl)-N-hydroxybenzamide]
6,1 to 10 µM,O=C(NO)c1cccc(CN(c2ccccc2)c2ccccc2)c1 [3-((diphenylamino)methyl)-N-hydroxybenzamide]
7,1 to 10 µM,"O=C(CCCN1C(=O)c2cccnc2N(C2CC2)c2ccccc21)NO [4-(11-cyclopropyl-5-oxo-5H-benzo[b]pyrido[2,3-e][1,4]diazepin-6(11H)-yl)-N-hydroxybutanamide]"
8,0.1 to 1 µM,"O=C(NO)c1ccc(Cn2c3c(c4ccccc42)CCCCCC3)cc1 [4-((6,7,8,9,10,11-hexahydro-5H-cycloocta[b]indol-5-yl)methyl)-N-hydroxybenzamide]"
9,0.1 to 1 µM,"O=C(NO)c1ccc(CNC2c3ccccc3COc3ccccc32)cc1 (stereo not shown) [4-((6,11-dihydrodibenzo[b,e]oxepin-11-ylamino)methyl)-N-hydroxybenzamide]"
10,< 0.05 µM,"O=C(NO)c1ccc(CN2c3ccccc3CCc3ccccc32)cc1 [4-((10,11-dihydro-5H-dibenzo[b,f]azepin-5-yl)methyl)-N-hydroxybenzamide]"
11,0.1 to 1 µM,"O=C(NO)c1ccc(CN2C(=O)c3cccnc3N(C3CC3)c3ccccc32)cc1 [4-((11-cyclopropyl-5-oxo-5H-benzo[b]pyrido[2,3-e][1,4]diazepin-6(11H)-yl)methyl)-N-hydroxybenzamide]"
12,< 0.05 µM,O=C(NO)c1ccc(CNC(c2ccccc2)c2ccccc2)cc1 [4-((benzhydrylamino)methyl)-N-hydroxybenzamide]
13,0.1 to 1 µM,O=C(NO)c1ccc(CN(c2ccccc2)c2ccccc2)cc1 [4-((diphenylamino)methyl)-N-hydroxybenzamide]
14,< 0.05 µM,"O=C(NO)c1ccc(CN2Cc3ccccc3Oc3ccccc32)cc1 [4-(dibenzo[b,f][1,4]oxazepin-10(11H)-ylmethyl)-N-hydroxybenzamide]"
15,< 0.05 µM,"O=C(CCCCCN1c2ccccc2CCc2ccccc21)NO [6-(10,11-dihydro-5H-dibenzo[b,f]azepin-5-yl)-N-hydroxyhexanamide]"
16,0.1 to 1 µM,"O=C(CCCCCN1C(=O)c2cccnc2N(C2CC2)c2ccccc21)NO [6-(11-cyclopropyl-5-oxo-5H-benzo[b]pyrido[2,3-e][1,4]diazepin-6(11H)-yl)-N-hydroxyhexanamide]"
17,0.05 to 0.1 µM,"O=C(CCCCCCN1C(=O)c2cccnc2N(C2CC2)c2ccccc21)NO [7-(11-cyclopropyl-5-oxo-5H-benzo[b]pyrido[2,3-e][1,4]diazepin-6(11H)-yl)-N-hydroxyheptanamide]"
18,0.1 to 1 µM,"O=C(CCCCCCN1Cc2ccccc2Oc2ccccc21)NO [7-(dibenzo[b,f][1,4]oxazepin-10(11H)-yl)-N-hydroxyheptanamide]"
19,0.1 to 1 µM,"O=C(CCCCCCCN1C(=O)c2cccnc2N(C2CC2)c2ccccc21)NO [8-(11-cyclopropyl-5-oxo-5H-benzo[b]pyrido[2,3-e][1,4]diazepin-6(11H)-yl)-N-hydroxyoctanamide]"
20,0.1 to 1 µM,"O=C(CCCCCCC(=O)N1Cc2ccccc2Oc2ccccc21)NO [8-(dibenzo[b,f][1,4]oxazepin-10(11H)-yl)-N-hydroxy-8-oxooctanamide]"

row,SMILES,IC50
1,O=C(NO)c1cnc(NC(c2ccc(F)cc2)c2ccc(F)cc2)nc1 [2-(bis(4-fluorophenyl)methylamino)-N-hydroxypyrimidine-5-carboxamide],< 0.05 µM

# Same assay, conditions: read-out: HDAC Inhibtion (IC50 μM) HDAC Enzyme
row,IC50,SMILES
1,< 0.05 µM,"O=C(NO)c1ccc(C2Nc3ccccc3Oc3ccccc32)cc1 (stereo not shown) [4-(10,11-dihydrodibenzo[b,f][1,4]oxazepin-11-yl)-N-hydroxybenzamide]"
2,< 0.05 µM,"O=C(NO)c1cnc(N2CCN(C3=Nc4ccccc4Oc4ccc(Cl)cc43)CC2)nc1 [(E)-2-(4-(2-chlorodibenzo[b,f][1,4]oxazepin-11-yl)piperazin-1-yl)-N-hydroxypyrimidine-5-carboxamide]"

# — patent US8399452B2, “Dibenzo[b,f][1,4]oxazepin-11-yl-N-hydroxybenzamides as HDAC inhibitors” (Methylgene Inc., priority 2006, dated 2013)
